Data published in ChEMBL document CHEMBL3797117 (Bioorg Med Chem Lett, 2016).

Experiments:
[1] = biological target: Aldo-keto reductase family 1 member B1 (Rattus norvegicus, UniProt P07943); test: Inhibition of ALR2 from rat lens using D,L-glyceraldehyde as substrate measured as absorption of NADPH for 4 mins by UV/vis spectrophotmetry
[2] = Antioxidant activity assessed as DPPH free radical scavenging activity at 100 uM after 40 mins by UV-Vis spectrophotometry; type: physicochemical
Brain = test: Reduction of MDA level in Wistar rat brain at 100 uM after 30 mins in presence of ascorbic acid by UV-vis spectrophotmetry relative to control; type: functional; details: 0.5 h
[3] = Antioxidant activity assessed as DPPH free radical scavenging activity at 10 uM after 120 mins under sunlight by UV-Vis spectrophotometry; type: physicochemical; details: 2 h
[4] = Antioxidant activity assessed as DPPH free radical scavenging activity at 100 uM after 120 mins under sunlight by UV-Vis spectrophotometry; type: physicochemical; details: 2 h
[5] = Antioxidant activity assessed as DPPH free radical scavenging activity at 1 uM after 30 mins under sunlight by UV-Vis spectrophotometry; type: physicochemical; details: 0.5 h
[6] = Antioxidant activity assessed as DPPH free radical scavenging activity at 10 uM after 30 mins under sunlight by UV-Vis spectrophotometry; type: physicochemical; details: 0.5 h
[7] = Antioxidant activity assessed as DPPH free radical scavenging activity after 30 mins under sunlight by UV-Vis spectrophotometry; type: physicochemical
[8] = Antioxidant activity assessed as DPPH free radical scavenging activity at 100 uM after 30 mins under sunlight by UV-Vis spectrophotometry; type: physicochemical; details: 0.5 h
[9] = Antioxidant activity assessed as DPPH free radical scavenging activity at 1 uM after 40 mins by UV-Vis spectrophotometry; type: physicochemical
[10] = Antioxidant activity assessed as DPPH free radical scavenging activity at 10 uM after 40 mins by UV-Vis spectrophotometry; type: physicochemical

| IC50 [1] [µM] | inhibition (INH) [2] [%] | SMILES | inhibition at 100 µM (Brain) [%] | further results |
| --- | --- | --- | --- | --- |
| 11.2 | 40.6 | COc1ccc(CN2CN(CC(=O)O)c3ccc(OC)cc3S2(=O)=O)cc1 | 31.5 | – |
| 7.5 | 5.9 | COc1ccc(CN2CN(CC(=O)O)c3ccc(Cl)cc3S2(=O)=O)cc1 | 1.6 | – |
| 13.6 | 53.1 | COc1ccc2c(c1)S(=O)(=O)N(Cc1ccccc1)CN2CC(=O)O | 42.3 | – |
| 4.8 | 32.3 | Cc1ccc2c(c1)S(=O)(=O)N(Cc1cc(O)ccc1F)CN2CC(=O)O | 14.1 | – |
| 7.2 | 6.2 | COc1ccc(CN2CN(CC(=O)O)c3ccc(Br)cc3S2(=O)=O)cc1 | 2.6 | – |
| 9.4 | – | O=C(O)CN1CN(Cc2ccccc2)S(=O)(=O)c2cc(O)ccc21 | 88 | inhibition (INH) [3]: 24.4%; inhibition (INH) [4]: 93.3% |
| 18.2 | 3.1 | COc1ccc(CN2CN(CC(=O)O)c3ccc(C)cc3S2(=O)=O)cc1 | 8.4 | – |
| 7.6 | – | O=C(O)CN1CN(Cc2ccc(O)cc2)S(=O)(=O)c2cc(O)ccc21 | 100 | inhibition (INH) [5]: 42.1%; inhibition (INH) [6]: 92.3%; EC50 [7]: 7.6 µM; inhibition (INH) [8]: 98% |
| 1.8 | 44.3 | COc1ccc(F)c(CN2CN(CC(=O)O)c3ccc(Br)cc3S2(=O)=O)c1 | 9.55 | – |
| 3.5 | 18.9 | COc1ccc(F)c(CN2CN(CC(=O)O)c3ccc(C)cc3S2(=O)=O)c1 | 4.47 | – |
| 5.6 | 5.2 | Cc1ccc2c(c1)S(=O)(=O)N(Cc1ccc(O)cc1)CN2CC(=O)O | 11 | – |
| – | 0 | CC(/C=C1\SC(=S)N(CC(=O)O)C1=O)=C\c1ccccc1 | 0 | – |
| – | 97 | Cc1c(C)c2c(c(C)c1O)CCC(C)(C(=O)O)O2 (stereo not drawn) [TROLOX] | 100 | inhibition (INH) [9]: 32%; inhibition (INH) [10]: 91.1% |
